Laboratory results as given in patent publication US20260027116A1, “Methods of Treating Chronic Graft-Versus-Host Disease Following Allogeneic Hematopoietic Stem Cell Transplantation” (Kadmon Corporation, LLC, priority 2022, published 2026).

System: cGVHD symptoms
Assay: Example 1: Global Severity Rating (GSR)
Format: in vivo, human
Protocol: Maximal Improvement from Baseline in Global Severity Rating (GSR) by Clinician-reported cGVHD Assessment. […] The response was defined using the scores from 9 organs: skin, eyes, mouth, esophagus, upper gastrointestinal (GI) track, lower GI tract, liver, lungs, and joints and fascia plus GSR. End of treatment (EOT) visit was performed within 3 days after the participant's last dose of study drug. […] Analysis was performed on mITT population.

CC(C)NC(=O)COc1cccc(-c2nc(Nc3ccc4[nH]ncc4c3)c3ccccc3n2)c1 [Belumosudil, 2-{3-[4-(1H-indazol-5-ylamino)-2-quinazolinyl]phenoxy}-N-(propan-2-yl) acetamide]
GSR maximal improvement 0, participants (%) (Cohort 1 200 mg QD): 5 (29%) participants | GSR maximal improvement 1, participants (%) (Cohort 1 200 mg QD): 0 (0%) participants | GSR maximal improvement 3, participants (%) (Cohort 1 200 mg QD): 0 (0%) participants | GSR maximal improvement from baseline −7, participants (%) (Cohort 1 200 mg QD): 0 (0%) participants | GSR maximal improvement −1, participants (%) (Cohort 1 200 mg QD): 1 (6%) participants | GSR maximal improvement −2, participants (%) (Cohort 1 200 mg QD): 2 (12%) participants | GSR maximal improvement −3, participants (%) (Cohort 1 200 mg QD): 4 (24%) participants | GSR maximal improvement −4, participants (%) (Cohort 1 200 mg QD): 2 (12%) participants | GSR maximal improvement −5, participants (%) (Cohort 1 200 mg QD): 2 (12%) participants | GSR maximal improvement −6, participants (%) (Cohort 1 200 mg QD): 0 (0%) participants | GSR maximal improvement 0, participants (%) (Cohort 2 200 mg BID): 4 (25%) participants | GSR maximal improvement 1, participants (%) (Cohort 2 200 mg BID): 1 (6%) participants | GSR maximal improvement 3, participants (%) (Cohort 2 200 mg BID): 1 (6%) participants | GSR maximal improvement from baseline −7, participants (%) (Cohort 2 200 mg BID): 0 (0%) participants | GSR maximal improvement −1, participants (%) (Cohort 2 200 mg BID): 2 (13%) participants | GSR maximal improvement −2, participants (%) (Cohort 2 200 mg BID): 4 (25%) participants | GSR maximal improvement −3, participants (%) (Cohort 2 200 mg BID): 0 (0%) participants | GSR maximal improvement −4, participants (%) (Cohort 2 200 mg BID): 0 (0%) participants | GSR maximal improvement −5, participants (%) (Cohort 2 200 mg BID): 2 (13%) participants | GSR maximal improvement −6, participants (%) (Cohort 2 200 mg BID): 2 (13%) participants | GSR maximal improvement 0, participants (%) (Cohort 3 400 mg QD): 3 (14%) participants | GSR maximal improvement 1, participants (%) (Cohort 3 400 mg QD): 1 (5%) participants | GSR maximal improvement 3, participants (%) (Cohort 3 400 mg QD): 0 (0%) participants | GSR maximal improvement from baseline −7, participants (%) (Cohort 3 400 mg QD): 2 (10%) participants | GSR maximal improvement −1, participants (%) (Cohort 3 400 mg QD): 4 (19%) participants | GSR maximal improvement −2, participants (%) (Cohort 3 400 mg QD): 4 (19%) participants | GSR maximal improvement −3, participants (%) (Cohort 3 400 mg QD): 1 (5%) participants | GSR maximal improvement −4, participants (%) (Cohort 3 400 mg QD): 3 (14%) participants | GSR maximal improvement −5, participants (%) (Cohort 3 400 mg QD): 0 (0%) participants | GSR maximal improvement −6, participants (%) (Cohort 3 400 mg QD): 0 (0%) participants
